Assay results published in US10478437B2, “Combination therapy to enhance the anticancer efficacy of platinum drugs” (University of Pittsburgh-of the Commonwealth System of …, priority 2014, dated 2019).
“Also recorded” adds a separate entry of the source.

Assays:
Format in all cases: cell-based, human
[1] = tested on: cisplatin-resistant ovarian cancer cell line A2780cis; experiment: Caspase-3/7 activity assay (apoptotic cell death), compound alone or with cisplatin; conditions: for activation of Caspase-3/7 in combination with cisplatin compared to mdivi-1: FIG. 7A and Table 6; for activation of Caspase-3/7 in combination with cisplatin compared to mdivi-1 / activity in the screen (Caspase-3/7 activity and microscopic examination), active / inactive / Caspase-3/7 activity upon combination with cisplatin compared to cisplatin alone or compound alone: in words; for caspase-3/7 activity (Lum), compound with cisplatin: compound 20 μM with 20 μM cisplatin; for caspase-3/7 activity (Lum), compound with cisplatin / caspase-3/7 activity (Lum), compound alone / caspase-3/7 activity (Lum) with compound and cisplatin (20 μM) / caspase-3/7 activity (Lum) with compound alone: 20 h; for caspase-3/7 activity (Lum) with compound and cisplatin (20 μM) / caspase-3/7 activity (Lum) with compound alone: Table 6; for caspase-3/7 activity (Lum) with compound alone: untreated cells 9 ± 1; for activity in the screen (Caspase-3/7 activity and microscopic examination), active / inactive: alone or in the presence of cisplatin
Procedure, shortened: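 Caspase-3/7 activity in A2780cis cells treated with compound alone or with cisplatin, luminescent Caspase-Glo 3/7 read-out. Apoptotic morphology is checked microscopically just before measurement.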

[2] = tested on: cisplatin-resistant ovarian cancer cell line A2780cis; experiment: CellTiter-Blue cell viability assay, compound alone or with cisplatin or carboplatin, 24 h; conditions: 24 h; for cell viability after combination with carboplatin compared to carboplatin alone: FIG. 6, in words; for viability at 10 µM / viability at 20 µM / viability at 50 µM: Homo sapiens, A2780cis, read-out: survival (%) of cells with compound alone; for viability at 10 µM: compound 10 μM; for viability at 50 µM: compound 50 μM
Method: Data were expressed as mean±standard deviation. A Student's t test was used for the comparisons between the treatment with the combination of analogs with cisplatin and with analogs alone. P<0.05 was considered statistically significant. Combination index was calculated using CompuSyn software. A value of 0.3-0.7 for the combination index indicates synergism, 0.1-0.3 indicates strong synergism, and <0.1 indicates very strong synergism (Chou, 2006).
To further validate the activity of the identified 11 active compounds (see FIG. 3), a CellTiter-Blue cell viability assay was performed with increasing concentrations (10 μM, 20 μM and 50 μM) of the disclosed compounds (see FIG. 4 and Table 5). Cisplatin resistant ovarian cancer cells (A2780cis) were treated with a disclosed compound alone, cisplatin alone or a combination of a compound with cisplatin for 24 h to determine the effects of the compounds on cell viability.
Analysis of the effect of the disclosed compounds with another platinum-containing compound, carboplatin, was performed. A2780cis cells were treated with carboplatin alone or with the combination of carboplatin and the disclosed compounds at indicated concentrations for 24 h followed by the analysis of cell viability.

[3] = tested on: A2780cis cells; experiment: Western blot of caspase/PARP cleavage, Noxa induction, RPA32 and H2AX phosphorylation; conditions: for cleavage of caspases and PARP, induction of Noxa in combination with cisplatin: compound 20 μM + cisplatin 20 μM, 20 h, FIG. 7B, in words
Method: (§1) Whole cell lysate was prepared by lysing cells in cell lysis buffer (Cell signaling technology) containing complete protease inhibitor (Roche). Cell lysates were then cleared at 15,000 rpm for 15 min at 4° C. The protein content was quantified using a Bio-Rad Protein Assay kit (Bio-Rad Laboratories, Hercules, Calif.). The equal amount of protein was separated on Tris-glycine gels (Invitrogen). The separated proteins were blotted onto a polyvinylidene difluoride membrane and blocked overnight at 4° C. in phosphate-buffered saline containing 0.1% Tween 20 and 10% nonfat dry milk (blocking buffer). Membranes were incubated with primary antibodies in blocking buffer overnight at 4° C. Primary antibodies used were: β-actin from Sigma; Bax, Bak, Caspase-9 and cleaved Caspase-3 from Cell Signaling Technology; phospho-Histone H2AX (Ser 139) and Noxa from Millipore. Membranes were then washed and incubated in peroxidase conjugated anti-rabbit IgG (Sigma) or anti-mouse IgG (Sigma) secondary antibody for 1 h at room temperature. Membranes were developed using SuperSignal West Femto Maximum Sensitivity Substrate (Thermo Fisher Scientific).
A2780cis cells were treated with cisplatin alone, compounds alone or in combination with cisplatin at indicated concentrations for 20 h to analyze apoptotic cell death in response to treatment. […] Expression and cleavage of several major caspases (Caspase-8, Caspase-9 and Caspase-3), as well as poly(ADP-ribose) polymerase (PARP) and NOXA. A2780cis cells were treated with cisplatin (20 μM) alone, compounds (20 μM) alone or in combination with cisplatin for 20 h.
To determine the effects of the compounds on DNA damage and mitochondrial dysfunction, A2780cis cells were treated with cisplatin (20 μM) alone or the combination of cisplatin with 20 μM of compound 1-6. Replication protein A (RPA) is a single strand-specific DNA-binding protein, consisting of three subunits, RPA70, RPA32, and RPA14. RPA32 is phosphorylated in response to DNA replication stress. Western blot analysis was performed to evaluate the phosphorylation of RPA32 and histone H2AX, the induction of Noxa expression and cleavage of caspase-3. […] A2780cis cells were treated with cisplatin (50 μM) alone, 1-6 (50 μM) alone or the combination of cisplatin and compound 1-6 for 4 h. The oxygen consumption rate (OCR) was measured by a Seahorse extracellular flux analyzer.

[4] = tested on: PEO4, SKOV3, H1299, MDA-MB-231, Ca133 cells; experiment: Western blot of PARP and Caspase-3 cleavage in other cisplatin-resistant cancer cells; conditions: 20 μM alone, 20 h, FIG. 9; in words
Method: FIG. 9. The combination of cisplatin and compound 1-6 triggers extensive apoptosis in various types of cisplatin- and multidrug-resistant tumor cells. Cisplatin-resistant cancer cells PEO4 (ovarian), SKOV3 (ovarian), H1299 (lung), MDA-MB-231 (breast), Ca133 (head & neck) were treated with DMSO (untreated), cisplatin (20 μM) alone, compound 1-6 (20 μM) alone, or the combination for 20 h. Cleavage of PARP and Caspase-3 were determined by western blot.
as §1
To evaluate whether the synergistic effects of the disclosed compounds and cisplatin could be extended to other types of cancer cells, breast cancer cells (MDA-MB-231), non-small cell lung carcinoma cells (H-1299), ovarian cancer cells (PEO4 and SKOV3) and head and neck cancer cells (Ca133) were treated with various combinations of cisplatin and compound 1-6 and analyzed for Caspase-3.

[5] = tested on: A2780cis cells; experiment: Short-term (3 h) exposure, cell survival by CellTiter-Blue after 48 h in compound free media; conditions: cisplatin alone, viability after two days, in words
Method: FIG. 5. Short-term exposure of A2780cis cells to the combination of cisplatin and compound 1-6 dramatically reduces cell survival. A2780cis cells were treated with increasing doses of cisplatin alone or the combination of cisplatin with compound 1-6 (20 μM) for 3 h. The compounds were then washed out. Cell survival was determined after 48 h incubation of cells in compound free media by CellTiter-Blue assay.
Further analysis was performed with compound 1-6. […] This synergism for the combination of cisplatin and 1-6 was further confirmed using a fresh sample of high chemical purity (98%). This synergistic effect was also observed using the CellTiter-Blue cell viability assay (FIG. 5) under an alternative exposure strategy that mimics in viva drug administration to test the combination effect. Considering the clearance of cisplatin over the time and the duration of exposure of tumor cells to the effective doses of the drugs in vivo (Los et al., 1989), a short-term exposure of cells to the combination of 20 μM of 1-6 with various doses of cisplatin was tested, followed by cell viability assay after two days.

[6] = Table 1, compound 20 μM, mean ± S.D. of triplicates
[7] = compound 5 μM + cisplatin 20 μM
[8] = compound 10 μM + cisplatin 20 μM
[9] = compound 20 μM + cisplatin 20 μM
[10] = compound 20 μM, untreated cells = 100%
[11] = compound 10 μM + carboplatin 200 μM
[12] = compound 20 μM + carboplatin 200 μM
[13] = compound 50 μM + carboplatin 200 μM
[14] = compound 50 μM + cisplatin 20 μM

| Structure (SMILES) | activation of Caspase-3/7 in combination with cisplatin compared to mdivi-1 [1] | caspase-3/7 activity (Lum), compound with cisplatin ([1]; Table 1) [Lum] | caspase-3/7 activity (Lum), compound alone [1, 6] [Lum] | caspase-3/7 activity (Lum), compound alone ([1]; Table 2, compound 20 μM) [Lum] | caspase-3/7 activity (Lum) with compound and cisplatin (20 μM) [1, 7] [Lum] | caspase-3/7 activity (Lum) with compound alone ([1]; compound 5 μM) [Lum] | caspase-3/7 activity (Lum) with compound and cisplatin (20 μM) [1, 8] [Lum] | caspase-3/7 activity (Lum) with compound alone ([1]; compound 10 μM) [Lum] | caspase-3/7 activity (Lum) with compound and cisplatin (20 μM) [1, 9] [Lum] | caspase-3/7 activity (Lum) with compound alone ([1]; compound 20 μM) [Lum] | activity in the screen (Caspase-3/7 activity and microscopic examination), active / inactive [1] | Caspase-3/7 activity upon combination with cisplatin compared to cisplatin alone or compound alone [1] | cell viability after combination with carboplatin compared to carboplatin alone [2] | viability at 10 µM ([2]; untreated cells = 100%) [%] | viability at 20 µM [2, 10] [%] | viability at 50 µM ([2]; untreated cells = 100%) [%] | Survival (%) of cells with compound and carboplatin (200 μM) [2, 11] [%] | survival (%) of cells with compound and cisplatin (20 μM) [2, 8] [%] | Survival (%) of cells with compound and carboplatin (200 μM) [2, 12] [%] | survival (%) of cells with compound and cisplatin (20 μM) [2, 9] [%] | further results |
| --- | --- | --- | --- | --- | --- | --- | --- | --- | --- | --- | --- | --- | --- | --- | --- | --- | --- | --- | --- | --- | --- |
| Cc1ccc(-n2c(=S)[nH]c3ccccc3c2=O)cc1F [Compound 1-17] | more effective; also recorded: more potent than mdivi-1 | 123 ± 5 | 10 ± 2 | 10 ± 2 | 34 ± 3 | 15 ± 8 | 76 ± 7 | 10 ± 1 | 101 ± 6 | 10 ± 1 | active | increase in Caspase-3/7 activity | cell viability was reduced | 101 ± 2.9 | 101 ± 2.1 | 101 ± 1.4 | 90.7 ± 0.9 | 63.0 ± 1.1 | 79.3 ± 3.9 | 39.6 ± 3.0 | Survival (%) of cells with compound and carboplatin (200 μM) [2, 13]: 69.7 ± 4.1%; survival (%) of cells with compound and cisplatin (20 μM) [2, 14]: 26.7 ± 1.4%; cleavage of caspases and PARP, induction of Noxa in combination with cisplatin [3]: cleavage of Caspase-8, 9, 3, PARP and the induction of Noxa |
| CCc1ccccc1-n1c(=S)[nH]c2ccccc2c1=O [Compound 1-19] | more effective; also recorded: more potent than mdivi-1 | 136 ± 12 | 12 ± 1 | 12 ± 1 | 36 ± 3 | 9 ± 2 | 114 ± 5 | 8 ± 1 | 96 ± 11 | 9 ± 1 | active | increase in Caspase-3/7 activity | cell viability was reduced | 103 ± 1.2 | 99.6 ± 3 | 98.5 ± 1.7 | 103.5 ± 1.6 | 47.9 ± 4.8 | 70.0 ± 2.9 | 25.3 ± 1.0 | Survival (%) of cells with compound and carboplatin (200 μM) [2, 13]: 31.6 ± 4.2%; survival (%) of cells with compound and cisplatin (20 μM) [2, 14]: 4.9 ± 1.4%; cleavage of caspases and PARP, induction of Noxa in combination with cisplatin [3]: cleavage of Caspase-8, 9, 3, PARP and the induction of Noxa |
| N.N.[Cl][Pt][Cl] [cisplatin, reference compound] |  |  | 30 ± 1 | 30 ± 1 |  |  |  |  |  | 28 ± 4 |  |  |  |  |  |  |  |  |  |  | caspase-3/7 activity (Lum), compound alone ([1]; Table 3, compound 20 μM): 35 ± 4 Lum; caspase-3/7 activity (Lum), compound alone ([1]; Table 4, compound 20 μM): 35 ± 4 Lum; survival (%) of cells with compound alone [2, 10]: 89.3 ± 0.6%; cell death after single compound exposure [4]: minimal effect in inducing cell death; time of increase in the phosphorylation of RPA32 post treatment, cisplatin alone ([3]; cisplatin 20 μM alone, FIG. 8A): > 12 h; effect of 3 hr exposure to cisplatin alone on cell viability [5]: slight effect on cell viability |
